In US20240158392A1 (Janssen Biotech, Inc., priority 2021, published 2024) one finds IC50 data, which are given here for 26 compounds.

SIK2, sequence (Q9H0K1 whole entry, species assumed): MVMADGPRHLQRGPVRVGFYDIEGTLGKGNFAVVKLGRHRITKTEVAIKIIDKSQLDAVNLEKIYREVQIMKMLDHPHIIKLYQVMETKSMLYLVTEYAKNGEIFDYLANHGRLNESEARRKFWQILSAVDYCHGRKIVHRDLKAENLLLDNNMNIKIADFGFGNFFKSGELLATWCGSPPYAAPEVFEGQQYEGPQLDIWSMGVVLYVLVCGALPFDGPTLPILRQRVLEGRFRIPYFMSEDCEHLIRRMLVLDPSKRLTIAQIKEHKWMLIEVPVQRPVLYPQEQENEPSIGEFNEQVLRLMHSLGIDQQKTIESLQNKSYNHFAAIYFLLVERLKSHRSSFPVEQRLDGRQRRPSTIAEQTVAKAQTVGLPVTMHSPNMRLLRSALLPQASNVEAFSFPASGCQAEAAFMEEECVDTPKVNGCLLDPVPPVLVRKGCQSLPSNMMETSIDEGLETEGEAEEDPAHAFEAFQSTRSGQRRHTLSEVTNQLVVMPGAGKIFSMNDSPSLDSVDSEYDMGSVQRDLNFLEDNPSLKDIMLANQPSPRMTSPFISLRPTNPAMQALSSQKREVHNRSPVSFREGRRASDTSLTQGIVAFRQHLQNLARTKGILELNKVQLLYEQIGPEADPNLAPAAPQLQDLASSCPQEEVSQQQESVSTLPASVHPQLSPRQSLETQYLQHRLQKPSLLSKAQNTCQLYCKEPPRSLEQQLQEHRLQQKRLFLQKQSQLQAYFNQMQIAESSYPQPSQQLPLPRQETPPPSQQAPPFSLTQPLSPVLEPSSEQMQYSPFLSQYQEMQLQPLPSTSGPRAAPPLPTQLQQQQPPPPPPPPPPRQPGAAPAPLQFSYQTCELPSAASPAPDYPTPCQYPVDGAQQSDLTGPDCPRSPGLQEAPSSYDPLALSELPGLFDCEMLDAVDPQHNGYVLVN

The first experiment addresses SIK2 (Homo sapiens, UniProt Q9H0K1). The experiment in a line: SIK2 Enzymatic Assay High Version 2 (High ATP). The format is biochemical.
Settings: not given
The method, then:
All steps were performed at room temperature. Compounds were pre-plated onto an assay plate using an Echo acoustic dispenser (Labcyte, E550 or E555) at 80 nL per well. Enzyme prepared in assay buffer at 6 nM (2× final concentration) was added at 4 μL per well using the Multidrop Combi (Thermo Fisher—used for all additions in this assay) to the assay plate, spun for 1 min at 1000 rpm (Allegra 6KR Beckman Coulter centrifuge), and incubated with compound for 30 minutes. Assay buffer containing 6 mM ATP and 400 μM HDAC5tide (2× of final concentration for each substrate) was added at 4 μL per well to the assay plate and then spun as above and incubated for 2 hours. […] ADP-Glo Max Reagent (prepared and aliquoted as per manufacturer instructions) was then added at 8 μL per well, spun and incubated for 2 hours. ADP-Glo Max Detection (prepared and aliquoted as per manufacturer instructions) was added at 8 μL per well to the assay plate, which was spun and incubated for 1 hour. The plate is then read on the Pherastar (BMG Labtech) using a luminescence read. Gain is set between 2200-2500.
As usually defined, the IC50 is the midpoint of a concentration-inhibition curve. The compound `Cc1cc(-c2ccn3nc(Nc4ccccn4)cc3c2)c(OC[C@@H]2CNCCO2)cn1` [Example 130, 5-[2-methyl-5-[[(2S)-morpholin-2-yl]methoxy]-4-pyridyl]-N-(2-pyridyl)pyrazolo[1,5-a]pyridin-2-amine] returned an IC50 of 0.00429 µM.
Compound `CCN1CC[C@@H]1COc1cnc(C)cc1-c1ccn2nc(NC(=O)C3CC3)cc2c1` [Example 451, N-[5-[5-[[(2R)-1-ethylazetidin-2-yl]methoxy]-2-methyl-4-pyridyl]pyrazolo[1,5-a]pyridin-2-yl]cyclopropanecarboxamide] returned an IC50 of 0.0182 µM.
Compound `Cc1cc(-c2ccn3nc(Nc4ccnc(C)n4)cc3c2)c(O[C@H]2C[C@H]3COC[C@@H](C2)N3C)cn1` [Example 410, 5-[2-methyl-5-[[(1R,5S,7s)-9-methyl-3-oxa-9-azabicyclo[3.3.1]nonan-7-yl]oxy]-4-pyridyl]-N-(2-methylpyrimidin-4-yl)pyrazolo[1,5-a]pyridin-2-amine] displayed an IC50 of less than 0.000847 µM.
With `Cc1cc(-c2ccn3nc(Nc4cc(F)n(C)n4)cc3c2)c(O[C@H]2C[C@H]3COC[C@@H](C2)N3C)cn1` [Example 120, N-(5-fluoro-1-methyl-1H-pyrazol-3-yl)-5-(2-methyl-5-(((1R,5S,7s)-9-methyl-3-oxa-9-azabicyclo[3.3.1]nonan-7-yl)oxy)pyridin-4-yl)pyrazolo[1,5-a]pyridin-2-amine], the IC50 is less than 0.000847 µM.
In turn, `Cc1cc(-c2ccn3nc(Nc4cccc(C(F)(F)F)n4)cc3c2)c(O[C@@H]2C[C@H]3COC[C@@H](C2)N3C)cn1` [Example 406, 5-[2-methyl-5-[[(1S,5R,7s)-9-methyl-3-oxa-9-azabicyclo[3.3.1]nonan-7-yl]oxy]-4-pyridyl]-N-[6-(trifluoromethyl)-2-pyridyl]pyrazolo[1,5-a]pyridin-2-amine] displayed a half-inhibitory concentration (IC50) of 0.00183 µM.
In turn, `Cc1cc(-c2ccn3nc(Nc4ccncn4)cc3c2)c(O[C@H]2C[C@H]3COC[C@@H](C2)N3C)cn1` [Example 420, 5-[2-methyl-5-[[(1R,5S,7s)-9-methyl-3-oxa-9-azabicyclo[3.3.1]nonan-7-yl]oxy]-4-pyridyl]-N-pyrimidin-4-yl-pyrazolo[1,5-a]pyridin-2-amine] returned a concentration for half-maximal inhibition (IC50) of 0.00236 µM.
`Cc1cc(-c2ccn3nc(NC(=O)C4CC4)cc3c2)c(O[C@@H]2CC[C@@H](O)C2)cn1` (stereo in doubt) [Example 569, (1*R, 3*R)—N-[5-[5-(3-hydroxycyclopentoxy)-2-methyl-4-pyridyl]pyrazolo[1,5-a]pyridin-2-yl]cyclopropanecarboxamide] registered an IC50 of 0.0717 µM.

Staying with this experiment, now noted: enzyme 6 nM, 6 mM ATP and 400 μM HDAC5tide (each 2× final concentration); 30 minutes pre-incubation, 2 hours; ADP-Glo Max luminescence; read-out: SIK2 high ATP IC50 (μM) (Test Example 2).
For the compound `Cc1cc(-c2ccn3nc(Nc4cc(C)nc(C)n4)cc3c2)c(OC[C@]2(C)CCCO2)cn1` (single isomer, unassigned) [Example 232, (*S)—N-(2,6-dimethylpyrimidin-4-yl)-5-[2-methyl-5-[(2-methyltetrahydrofuran-2-yl)methoxy]-4-pyridyl]pyrazolo[1,5-a]pyridin-2-amine], the half-maximal inhibitory concentration (IC50) came out at 0.0245 µM.
The same measure, in the same setting: the result for `Cc1cc(-c2ccn3nc(Nc4cc(C)nc(C)n4)cc3c2)c(OC[C@H]2C[C@@H](O)CO2)cn1` [Example 204, (3R,5R)-5-[[4-[2-[(2,6-dimethylpyrimidin-4-yl)amino]pyrazolo[1,5-a]pyridin-5-yl]-6-methyl-3-pyridyl]oxymethyl]tetrahydrofuran-3-ol] reads 0.087 µM; that for `Cc1cc(-c2ccn3nc(Nc4cc(C)nc(N5CCOCC5)n4)cc3c2)c(OC[C@H]2OCC[C@@H]2O)cn1` [Example 294, (2R,3S)-2-[[6-methyl-4-[2-[(6-methyl-2-morpholino-pyrimidin-4-yl)amino]pyrazolo[1,5-a]pyridin-5-yl]-3-pyridyl]oxymethyl]tetrahydrofuran-3-ol], 0.0138 µM.
The same measure, in the same setting: the value for `Cc1cc(-c2ccn3nc(Nc4cc(C)nc(C)n4)cc3c2)c(OC[C@@]2(O)CCOC2)cn1` (single isomer, unassigned) [Example 203, (*R)-3-(((4-(2-((2,6-dimethylpyrimidin-4-yl)amino)pyrazolo[1,5-a]pyridin-5-yl)-6-methylpyridin-3-yl)oxy)methyl)tetrahydrofuran-3-ol] was 0.0469 µM; that for `Cc1cc(Nc2cc3cc(-c4cc(OC(F)F)ncc4OCC(C)(C)C(=O)N(C)C)ccn3n2)nc(C)n1` [Example 728, 3-[[6-(difluoromethoxy)-4-[2-[(2,6-dimethylpyrimidin-4-yl)amino]pyrazolo[1,5-a]pyridin-5-yl]-3-pyridyl]oxy]-N,N,2,2-tetramethyl-propanamide] was 0.0049 µM.
For the compound `Cc1cc(-c2ccn3nc(Nc4cnn(C(C)C)c4)cc3c2)c(OC[C@@H]2CNCCO2)cn1` [Example 133, N-(1-isopropylpyrazol-4-yl)-5-[2-methyl-5-[[(2S)-morpholin-2-yl]methoxy]-4-pyridyl]pyrazolo[1,5-a]pyridin-2-amine], the IC50 turned out to be 0.00845 µM.
As to `Cc1cc(-c2ccn3nc(Nc4cc(C)nc(C)n4)cc3c2)c(OC2CCS(=O)(=O)CC2)cn1` [Example 550, N-(2,6-dimethylpyrimidin-4-yl)-5-[5-(1,1-dioxothian-4-yl)oxy-2-methyl-4-pyridyl]pyrazolo[1,5-a]pyridin-2-amine], the IC50 is 0.0055 µM.
On to `Cc1cc(-c2ccn3nc(Nc4ccc(C(=O)NC5CC5)cn4)cc3c2)c(OCC(C)(C)O)cn1` [Example 639, N-cyclopropyl-6-[[5-[5-(2-hydroxy-2-methyl-propoxy)-2-methyl-4-pyridyl]pyrazolo[1,5-a]pyridin-2-yl]amino]pyridine-3-carboxamide], for which the IC50 stood at 0.0887 µM.
Take `Cc1cc(-c2cn3cc(Nc4cncc(C)n4)nc3cn2)c(O[C@H]2CC[C@H](O)CC2)cn1` [Example 657, 4-[[6-methyl-4-[2-[(6-methylpyrazin-2-yl)amino]imidazo[1,2-a]pyrazin-6-yl]-3-pyridyl]oxy]cyclohexanol]: the IC50 was 0.984 µM.
In the case of `Cc1cc(Nc2cc3cc(-c4cc(OCC(F)F)ncc4OCC(C)(C)C#N)ccn3n2)nn(C2CC2)c1=O` [Example 737, 3-((4-(2-((1-cyclopropyl-5-methyl-6-oxo-1,6-dihydropyridazin-3-yl)amino)pyrazolo[1,5-a]pyridin-5-yl)-6-(2,2-difluoroethoxy)pyridin-3-yl)oxy)-2,2-dimethylpropanenitrile], the IC50 turned out to be 0.014 µM.
As for `Cc1cc(-c2ccn3nc(Nc4ccn(C)n4)cc3c2)c(OCC2(N)CC(F)(F)C2)cn1` [Example 162, 5-[5-[(1-amino-3,3-difluoro-cyclobutyl)methoxy]-2-methyl-4-pyridyl]-N-(1-methylpyrazol-3-yl)pyrazolo[1,5-a]pyridin-2-amine], the IC50 was found to be 0.0196 µM.
Turning to `Cc1cnc(Nc2cc3cc(-c4cc(C)ncc4OC[C@]45CN[C@H](CO4)C5)ccn3n2)cn1` [Example 251, 5-[2-methyl-5-[[(1S,4S)-5-oxa-2-azabicyclo[2.2.1]heptan-4-yl]methoxy]-4-pyridyl]-N-(5-methylpyrazin-2-yl)pyrazolo[1,5-a]pyridin-2-amine], the IC50 came to 0.00284 µM.
The same measure, in the same setting: the result for `Cc1cc(-c2ccn3nc(Nc4cc(C)c(C(=O)NC5CC5)c(C)n4)cc3c2)c(O[C@H]2CC[C@H](O)CC2)cn1` [Example 334, N-cyclopropyl-6-[[5-[5-(4-hydroxycyclohexoxy)-2-methyl-4-pyridyl]pyrazolo[1,5-a]pyridin-2-yl]amino]-2,4-dimethyl-pyridine-3-carboxamide] reads 0.00301 µM.
Turning to `CC(C)(C#N)COc1cnc(OC(F)F)cc1-c1ccn2nc(Nc3cccnn3)cc2c1` [Example 708, 3-[[6-(difluoromethoxy)-4-[2-(pyridazin-3-ylamino)pyrazolo[1,5-a]pyridin-5-yl]-3-pyridyl]oxy]-2,2-dimethyl-propanenitrile], the IC50 is 0.00591 µM.
Take `Cc1cc(-c2ccn3nc(Nc4cc(C)nc(C(C)(C)C)n4)cc3c2)c(OCC(C)(C)O)cn1` [Example 261, 1-[[4-[2-[(2-tert-butyl-6-methyl-pyrimidin-4-yl)amino]pyrazolo[1,5-a]pyridin-5-yl]-6-methyl-3-pyridyl]oxy]-2-methyl-propan-2-ol]: the IC50 was found to be 0.0239 µM.
Same read-out and setting: the value for `Cc1cc(-c2ccn3nc(Nc4cc(C)nc(C)n4)cc3c2)c(OCC2(C#N)COC2)cn1` [Example 275, 3-[[4-[2-[(2,6-dimethylpyrimidin-4-yl)amino]pyrazolo[1,5-a]pyridin-5-yl]-6-methyl-3-pyridyl]oxymethyl]oxetane-3-carbonitrile] was 0.0313 µM; that for `Cc1cc(-c2ccn3nc(Nc4cc(C)nc(C)n4)cc3c2)c(OCC2(O)CCC2)cn1` [Example 217, 1-[[4-[2-[(2,6-dimethylpyrimidin-4-yl)amino]pyrazolo[1,5-a]pyridin-5-yl]-6-methyl-3-pyridyl]oxymethyl]cyclobutanol] was 0.0279 µM; that for `O=C(Nc1cc2cc(-c3cc(C(F)(F)F)ncc3OC[C@@H]3CNCCO3)ccn2n1)C1CC1` [Example 601, N-[5-[5-[[(2S)-morpholin-2-yl]methoxy]-2-(trifluoromethyl)-4-pyridyl]pyrazolo[1,5-a]pyridin-2-yl]cyclopropanecarboxamide] was 0.116 µM.
Turning to `Cc1cc(Nc2cc3cc(-c4cc(OCC(F)(F)F)ncc4O[C@H]4CC[C@H](O)CC4)ccn3n2)nc(C)n1` [Example 664, 4-[[4-[2-[(2,6-dimethylpyrimidin-4-yl)amino]pyrazolo[1,5-a]pyridin-5-yl]-6-(2,2,2-trifluoroethoxy)-3-pyridyl]oxy]cyclohexanol], the IC50 came to 0.0953 µM.
